# Laboratory results reported in ChEMBL document CHEMBL1821700, “SAR by interligand nuclear overhauser effects (ILOEs) based discovery of acylsulfonamide compounds active against Bcl-x(L) and Mcl-1” (J Med Chem, 2011).
# Tests used:
# Bcl-2-like protein 1 [1] = target: T1, Bcl-2-like protein 1 (Homo sapiens, UniProt Q07817); test: Binding affinity to Bcl-xL by 2D- NOESY analysis
# [2] = target: Induced myeloid leukemia cell differentiation protein Mcl-1 (Homo sapiens, UniProt Q07820); test: Displacement of FITC labeled Bak BH3 peptide from Mcl-1 after 2 mins by Fluorescence Polarization assay
# Bcl-2-like protein 1 [3] = target: T1, Bcl-2-like protein 1; test: Displacement of FITC labeled Bak BH3 peptide from Bcl-xL after 10 mins by Fluorescence Polarization assay
# T1 sequence (Q07817 whole entry): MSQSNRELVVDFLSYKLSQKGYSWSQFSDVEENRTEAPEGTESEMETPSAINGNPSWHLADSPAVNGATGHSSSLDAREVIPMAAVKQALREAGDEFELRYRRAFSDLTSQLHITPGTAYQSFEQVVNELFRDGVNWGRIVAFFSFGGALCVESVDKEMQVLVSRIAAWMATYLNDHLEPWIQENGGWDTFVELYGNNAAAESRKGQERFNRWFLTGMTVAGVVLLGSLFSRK
# Sequence of Induced myeloid leukemia cell differentiation protein Mcl-1 (Q07820 whole entry): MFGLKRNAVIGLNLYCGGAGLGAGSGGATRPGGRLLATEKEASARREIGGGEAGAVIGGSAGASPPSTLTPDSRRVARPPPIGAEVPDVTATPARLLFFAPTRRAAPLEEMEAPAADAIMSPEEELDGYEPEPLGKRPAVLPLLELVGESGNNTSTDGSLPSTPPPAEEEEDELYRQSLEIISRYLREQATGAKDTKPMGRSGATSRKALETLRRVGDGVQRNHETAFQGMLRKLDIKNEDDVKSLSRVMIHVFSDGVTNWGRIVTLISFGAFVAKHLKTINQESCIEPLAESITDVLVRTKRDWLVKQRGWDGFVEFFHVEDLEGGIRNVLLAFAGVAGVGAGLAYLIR
SMILES,Kd (Bcl-2-like protein 1 [1]),IC50 [2],IC50 (Bcl-2-like protein 1 [3])
O=C(O)c1ccc(-c2ccc(F)cc2)cc1,300 µM,–,–
O=C(O)c1ccccc1N1CCCCC1,378 µM,–,–
O=C(NS(=O)(=O)c1ccc(COc2ccccc2)cc1)c1ccc(-c2ccccc2)cc1,–,43.2 µM,16.8 µM
O=C(NS(=O)(=O)c1ccc(COc2ccccc2)cc1)c1cccc(-c2ccccc2)c1,–,25.4 µM,15.1 µM
O=C(NS(=O)(=O)c1ccc(COc2ccccc2)cc1)c1ccccc1-c1ccccc1,–,> 1000 µM,42.7 µM
O=C(NS(=O)(=O)c1ccc(COc2ccccc2)cc1)c1ccc(-c2ccc(F)cc2)cc1,–,16.6 µM,9.37 µM
O=C(NS(=O)(=O)c1ccc(COc2ccccc2)cc1)c1ccc(-c2ccc(Cl)cc2)cc1,–,7.26 µM,3.79 µM
O=C(NS(=O)(=O)c1ccc(COc2ccccc2)cc1)c1ccc(-c2cc(Cl)cc(Cl)c2)cc1,–,2.51 µM,4.14 µM
O=C(NS(=O)(=O)c1ccc(Oc2ccccc2)cc1)c1ccc(-c2ccccc2)cc1,–,3.56 µM,28 µM
O=C(NS(=O)(=O)c1ccc(Oc2ccccc2)cc1)c1ccc(-c2ccc(F)cc2)cc1,–,17.8 µM,33.5 µM
O=C(NS(=O)(=O)c1ccc(Oc2ccccc2)cc1)c1ccc(-c2cc(Cl)cc(Cl)c2)cc1,–,5.08 µM,49.5 µM
O=C(NS(=O)(=O)c1ccc(OCc2ccccc2)cc1)c1ccc(-c2cc(Cl)cc(Cl)c2)cc1,–,6.3 µM,3.19 µM
O=C(NS(=O)(=O)c1ccc(-c2ccccc2)cc1)c1ccc(Oc2ccccc2)cc1,–,> 1000 µM,161 µM
O=C(NS(=O)(=O)c1ccc(COc2ccccc2)cc1)c1cccc(-c2ccc(C(F)(F)F)cc2)c1,–,8.37 µM,6.2 µM
O=C(NS(=O)(=O)c1ccc(COc2ccccc2)cc1)c1cccc(-c2cc(Cl)cc(Cl)c2)c1,–,7.57 µM,0.31 µM
O=C(NS(=O)(=O)c1ccc(OCc2ccccc2)cc1)c1cccc(-c2cc(Cl)cc(Cl)c2)c1,–,0.22 µM,0.18 µM
O=C(NS(=O)(=O)c1ccc(COc2ccccc2)cc1)c1cccc(-c2ccc(Cl)cc2Cl)c1,–,8.69 µM,9.98 µM
O=C(NS(=O)(=O)c1ccc(COc2ccccc2)cc1)c1cccc(-c2ccc(Cl)c(Cl)c2)c1,–,5.76 µM,7.15 µM
O=C(NS(=O)(=O)c1ccc(Oc2ccccc2)cc1)c1cccc(-c2ccccc2)c1,–,3.24 µM,28.5 µM

SMILES,Kd (Bcl-2-like protein 1 [1]),IC50 [2],IC50 (Bcl-2-like protein 1 [3])
O=C(NS(=O)(=O)c1ccc(Oc2ccccc2)cc1)c1cccc(-c2cc(Cl)cc(Cl)c2)c1,–,7.11 µM,2.53 µM
O=C(NS(=O)(=O)c1ccc(Oc2ccccc2)nc1)c1cccc(-c2cc(Cl)cc(Cl)c2)c1,–,9.78 µM,2.31 µM
O=C(NS(=O)(=O)c1ccc(Oc2ccccc2)cc1)c1cccc(-c2cccc(Cl)c2Cl)c1,–,4.76 µM,4.08 µM
O=C(NS(=O)(=O)c1ccc(Oc2ccccc2)cc1)c1cccc(-c2ccc(Cl)cc2Cl)c1,–,3.72 µM,1.94 µM
O=C(NS(=O)(=O)c1ccc(Oc2ccccc2)cc1)c1cccc(-c2ccc(Cl)c(Cl)c2)c1,–,2.48 µM,1.97 µM
COc1ccc(-c2cccc(C(=O)NS(=O)(=O)c3ccc(Oc4ccccc4)cc3)c2)cc1OC,–,42.6 µM,> 1000 µM
O=C(NS(=O)(=O)c1ccc2ccccc2c1)c1cccc(-c2ccc(Cl)c(Cl)c2)c1,–,13.2 µM,10.9 µM
CCCCOc1ccc(S(=O)(=O)NC(=O)c2cccc(-c3ccc(Cl)c(Cl)c3)c2)cc1,–,38.8 µM,12.1 µM
O=C(NS(=O)(=O)c1ccc(OCc2ccccc2)cc1)c1cccc(-c2ccc(Cl)c(Cl)c2)c1,–,4.88 µM,2.96 µM
O=C(NS(=O)(=O)c1ccc(OCC2CCCCC2)cc1)c1cccc(-c2ccc(Cl)c(Cl)c2)c1,–,0.62 µM,0.16 µM
COc1ccccc1Oc1ccc(S(=O)(=O)NC(=O)c2cccc(-c3ccc(Cl)c(Cl)c3)c2)cc1,–,6.63 µM,3.76 µM
N#Cc1c(Cl)cccc1Oc1ccc(S(=O)(=O)NC(=O)c2cccc(-c3ccc(Cl)c(Cl)c3)c2)cc1,–,3.18 µM,2.7 µM
O=C(NS(=O)(=O)c1ccc(Oc2c(Cl)cccc2[N+](=O)[O-])cc1)c1cccc(-c2ccc(Cl)c(Cl)c2)c1,–,3.04 µM,2 µM
O=C(NS(=O)(=O)c1ccc(Oc2cc(C(F)(F)F)cc(C(F)(F)F)c2)cc1)c1cccc(-c2ccc(Cl)c(Cl)c2)c1,–,3.04 µM,2.94 µM
O=C(NS(=O)(=O)c1ccc(Oc2ccc(F)cc2)cc1)c1cccc(-c2ccc(Cl)c(Cl)c2)c1,–,3.91 µM,2.87 µM
CCOc1ccc(Oc2ccc(S(=O)(=O)NC(=O)c3cccc(-c4ccc(Cl)c(Cl)c4)c3)cc2)cc1,–,0.14 µM,0.086 µM
Nc1ncccc1OCc1ccccc1,692 µM,–,–
Oc1cccc2c1CCCC2,4300 µM,–,–
